Laboratory results published in patent US7687496B2, “C7-substituted camptothecin analogs” (priority 2007, dated 2010).
Read-outs that look alike come from different tables or passages of the source.

Tests used:
[1] = tested on: advanced gastrointestinal cancer; details: cited from earlier work
[2] = cited from earlier work
[3] = tested on: advanced malignant melanoma; details: fifteen patients, 90-360 mg/m^2 every 2 weeks; cited from earlier work
[4] = doses of 20 to 30 mg/m^2; cited from earlier work
[5] = clinical studies in Japan; cited from earlier work
human plasma proteins = experiment: Percent of free camptothecin analogs in human plasma (dialysis, HPLC); details: 100 nM compound concentrations
Method: Stocks of various camptothecin analogs were prepared in DMSO. Phosphate buffer was prepared from analytical grade reagents and regenerated cellulose membranes with 12-14 kD molecular weight cut-off (MWCO) were purchased from Spectrum Laboratories. Samples were incubated 48 hours or longer at room temperature until equilibrium was reached. Experiments to determine the percent of free camptothecin/Karenitecin® analogs were performed in triplicate. Optimum HPLC detection conditions for each camptothecin/Karenitecin® analog were developed using traditional HPLC methods.

A2780/DX5 cells = experiment: Sulforhodamine B (SRB) cytotoxicity assay in A2780/DX5 cells; type: cell-based; details: for IC50 Ratio: A2780/DX5 versus A2780/WT; for IC50: Homo sapiens, A2780, read-out: A2780/DX5
Method: (§1) Each of the testing conditions used in this study in both A2780/WT (wild-type) and A2780/DX5 cells were repeated in five to fifteen experiments that were performed on separate days. Each experiment consisted of one microtiter plate with at least eight individual assays of a given drug treatment condition on the plate. The sulforhodamine B (SRB) assay was used to assess cytotoxicity and absorbance at 570 nm (A570) in order to calculate the percentage of cell control (or percent cell survival) for the various treatment conditions in the plate wells.
(§2) Roswell Park Memorial Institute (RPMI 1640) medium, fetal bovine serum (FBS), and L-glutamine were purchased from Gibco BRL. Drugs were dissolved in sterile dimethylsulfoxide (DMSO), from American Type Culture Collection (ATCC) for stock solutions (2.5 to 5.0 mM). Subsequent dilutions were made using cell culture medium (prior to adding the drug to cells). SRB was purchased from Sigma and dissolved in 1.0 percent acetic acid. Trichloroacetic acid was purchased from VWR International.
(§3) Cells were manipulated in a Class IIA/B3 Biological Safety Cabinet (Forma Scientific) and maintained at 37° C. in a humidified atmosphere containing 5% CO2 in a water-jacketed cell culture incubator (Forma Scientific). Cells were counted using a Coulter-Z1 counter (Beckman-Coulter). Following drug treatment, plates were washed using a Biomek 2000 station (Beckman) and, following exposure to SRB dye, plates were washed using an automated plate washer (Model EL404, Bio-Tek Instruments). Percentage of control was correlated to A570 values and determined using a Model EL800 plate reader (Bio-Tek Instruments).
(§4) Population doubling times for the two cell lines used in this study encompassed a total of five cell doublings corresponding to approximately 5 days for A2780/WT and A2780/DX5 cells. A2780/WT and A2780/DX5 cells were cultured in RPMI 1640 medium supplemented with 10% fetal bovine serum and 1 mM of L-glutamine. Both cell lines were maintained as monolayered cultures in T-25 or T-75 flasks and then seeded to microtiter plate wells for experiments described herein. Prior to SRB assays, cell viability was monitored by evaluation of microtiter plate wells. Dead cells detach and float while living cells remain attached to the bottom of the cell well.
The sulforhodamine B (SRB) cytotoxicity assay (see, Skehan P, et al., New colorimetric cytotoxicity assay for anticancer-drug screening. J. Natl. Cancer Inst. 82:1107-1112 (1990)) was used to determine the cytotoxic effects of BNP1350, SN-38, topotecan, 9-NH2-CPT, and 9-NO2-CPT on cell growth in vitro. Briefly, after the medium was aspirated from individual plate wells, trichloroacetic acid (100 μL of 10.0% solution) was added to each well, and the plates were incubated at 4° C. for at least 1 hour. The plates were washed five-times with water using an automated microplate washer (Model EL 404, Bio-Tek Instruments), SRB solution (100 μL of 0.4 grams SRB dissolved in 100 mL 1.0 percent acetic acid) was added, and plates remained at room temperature for 15 minutes. The plates were then washed five-times using acetic acid (1.0%), air dried, and bound dye was solubilized in Tris base (150 μL, 10 mM). Plates were agitated (gently) for 5 minutes and the absorbance values of the SRB dye-protein adduct at a 570 nm wavelength (A570) were determined using an automated microtiter plate reader equipped with an A570 filter (Model EL800, BioTek Instruments).

[6] = tested on: A2780/WT (wild-type) cells; experiment: Sulforhodamine B (SRB) cytotoxicity assay in A2780/WT cells; type: cell-based; details: Homo sapiens
Method: as §1, §2, §3
as §4, with “Dead cells detach and float while living cells remain attached to the bottom of the cell well.” left out
The sulforhodamine B (SRB) cytotoxicity assay (see, Skehan P, et al., New colorimetric cytotoxicity assay for anticancer-drug screening. J. Natl. Cancer Inst. 82:1107-1112 (1990)) was used to determine the cytotoxic effects of BNP1350, SN-38, topotecan, 9-NH2-CPT, and 9-NO2-CPT on cell growth in vitro. […] Plates were agitated (gently) for 5 minutes and the absorbance values of the SRB dye-protein adduct at a 570 nm wavelength (A570) were determined using an automated microtiter plate reader equipped with an A570 filter (Model EL800, BioTek Instruments).

[7] = tested on: panel of over 20 human cancer cell lines
[8] = carboxylate form versus lactone form; cited from earlier work
[9] = 5-day course (27 patients total), 4 wks
[10] = 5-day course (27 patients total), 8 wks
[11] = 5-day course (27 patients total), 12 wks
[12] = single-dose method (34 patients total), 3 wks
[13] = single-dose method (34 patients total), 6 wks
[14] = single-dose method (34 patients total), 9 wks
[15] = single-dose method (34 patients total), 12 wks
[16] = 5-day course, 15 mg/m^2 × 5, 9 patients treated
[17] = 5-day course, 17 mg/m^2 × 5, 5 patients treated
[18] = 5-day course, 20 mg/m^2 × 5, 10 patients treated
[19] = single-dose method, 110 mg/m^2, 2 patients treated
[20] = single-dose method, 120 mg/m^2, 7 patients treated
[21] = single-dose method, 180 mg/m^2, 9 patients treated

SMILES: CC[C@@]1(O)C(=O)OCc2c1cc1n(c2=O)Cc2cc3ccccc3nc2-1 [CPT sodium]
- Objective results: Improved [1, 9]: 1 patients
- Objective results: Stable [1, 9]: 12 patients
- Objective results: Worse [1, 9]: 14 patients
- Objective results: Stable [1, 10]: 7 patients
- Objective results: Worse [1, 10]: 20 patients
- Objective results: Stable [1, 11]: 6 patients
- Objective results: Worse [1, 11]: 21 patients
- patients with evidence of partial objective improvement ([1]; after 2 months (8 or 9 weeks), 61 patients): two of their 61 patients
- Objective results: Improved ([1]; single-dose method (34 patients total), 3 wks after start of therapy): 4 patients
- Objective results: Stable [1, 12]: 17 patients
- Objective results: Worse [1, 12]: 13 patients
- Objective results: Improved [1, 13]: 2 patients
- Objective results: Stable [1, 13]: 11 patients
- Objective results: Worse [1, 13]: 21 patients
- Objective results: Improved [1, 14]: 2 patients
- Objective results: Stable [1, 14]: 8 patients
- Objective results: Worse [1, 14]: 24 patients
- Objective results: Stable [1, 15]: 6 patients
- Objective results: Worse [1, 15]: 28 patients
- Cystitis ([2]; 5-day course (P < 0.05)): 48 (P < 0.05) % of 27 Patients
- Number of patients with cystitis ([2]; 5-day course, 11 mg/m^2 × 5, 2 patients treated): 1 patients
- Number of patients with cystitis [2, 16]: 4 patients
- Number of patients with diarrhea [2, 16]: 1 patients
- Number of patients with cystitis [2, 17]: 2 patients
- Number of patients with diarrhea [2, 17]: 4 patients
- Number of patients with cystitis [2, 18]: 6 patients
- Number of patients with diarrhea [2, 18]: 4 patients
- Number of patients with diarrhea ([2]; 5-day course, 22 mg/m^2 × 5, 1 patient treated): 1 patients
- Number of patients with cystitis ([2]; single-dose method, 100 mg/m^2, 6 patients treated): 2 patients
- Number of patients with cystitis [2, 19]: 1 patients
- Number of patients with diarrhea [2, 19]: 1 patients
- Number of patients with cystitis [2, 20]: 2 patients
- Number of patients with diarrhea [2, 20]: 4 patients
- Number of patients with cystitis [2, 21]: 3 patients
- Number of patients with diarrhea [2, 21]: 2 patients
- less pronounced transient tumor regression [3]: three patients
- myelosuppression [3]: 11 patients
- patients with a 50% or greater decrease in tumor diameter [3]: None of the patients
- dose-limiting bladder toxicity [4]: three patients

SMILES: CCc1c2c(nc3ccc(OC(=O)N4CCC(N5CCCCC5)CC4)cc13)-c1cc3c(c(=O)n1C2)COC(=O)[C@]3(O)CC [CPT-11, 7-ethyl-10-[4-(1-piperidino)-1-piperidino]carbonyloxy camptothecin]
- patient deaths directly attributable to drug toxicity [5]: approximately 100 patient deaths

SMILES: C=C[Si](C)(C)CCc1c2c(nc3ccccc13)-c1cc3c(c(=O)n1C2)COC(=O)[C@]3(O)CC [Compound 1, 11-(4S)-[2-(dimethylvinylsilanyl)-ethyl]-4-ethyl-4-hydroxy-1,12-dihydro-4H-2-oxa-6,12a-diaza-dibenzo[b,h]fluorene-3,13-dione]
- Percent of Free Camptothecin Analogs in Human Plasma (human plasma proteins): 2%
- IC50 Ratio (A2780/DX5 cells): 1.68
- IC50 (A2780/DX5 cells): 21.8 nM
- IC50 ([6]; SRB assay, A2780/WT cells, read-out: A2780/WT): 13 nM

SMILES: CC[C@@]1(O)C(=O)OCc2c1cc1n(c2=O)Cc2c-1nc1ccccc1c2CC[Si](C)(C)CSC(C)=O [Compound 9, thioacetic acid S-({[2-(4-ethyl-4-hydroxy-3,13-dioxo-3,4,12,13-tetrahydro-1H-2-oxa-6,12a-diaza-dibenzo[b,h]fluoren-11-yl)-ethyl]-dimethylsilanyl}-methyl)ester]
- IC50 Ratio (A2780/DX5 cells): 1.94
- IC50 (A2780/DX5 cells): 125 nM
- IC50 ([6]; A2780, read-out: A2780/WT): 64.7 nM

SMILES: CC[C@@]1(O)C(=O)OCc2c1cc1n(c2=O)Cc2c-1nc1ccccc1c2CC[Si](C)(C)CCCOC(=O)C1CCC1 [Compound 62, Cyclobutanecarboxylic acid 3-{[2-(4-ethyl-4-hydroxy-3,13-dioxo-3,4,12,13-tetrahydro-1H-2-oxa-6,12a-diaza-dibenzo[b,h]fluoren-11-yl)-ethyl]-dimethyl-silanyl}-propyl ester]
- IC50 Ratio (A2780/DX5 cells): 3.77
- IC50 (A2780/DX5 cells): 39.2 nM
- IC50 ([6]; A2780, read-out: A2780/WT): 10.4 nM

SMILES: CC[C@@]1(O)C(=O)OCc2c1cc1n(c2=O)Cc2c-1nc1ccccc1c2CC[Si](C)(C)CCCOC(=O)C1=CCNO1 [Compound 64, 2,3-Dihydro-isoxazole-5-carboxylic acid 3-{[2-(4-ethyl-4-hydroxy-3,13-dioxo-3,4,12,13-tetrahydro-1H-2-oxa-6,12a-diaza-dibenzo[b,h]fluoren-11-yl)-ethyl]-dimethyl-silanyl}-propyl ester]
- IC50 Ratio (A2780/DX5 cells): 4.27
- IC50 (A2780/DX5 cells): 59.8 nM
- IC50 ([6]; A2780, read-out: A2780/WT): 14 nM

SMILES: CC[C@@]1(O)C(=O)OCc2c1cc1n(c2=O)Cc2c-1nc1ccccc1c2CC[Si](C)(C)C [Karenitecin, (4S)-4-ethyl-4-hydroxy-11-[2-(trimethylsilyl)ethyl]-1H-pyrano[3′:4′:6,7]indolizino[1,2-b]quinoline-3,14(4H,12H)-dione]
- antitumor potency compared with Topotecan and SN-38 [7]: significantly more potent antitumor agent than either Topotecan™ or SN-38

SMILES: CC[C@@](O)(C(=O)O)c1cc2n(c(=O)c1CO)Cc1cc3ccccc3nc1-2 [carboxylate form of CPT]
- reduction of anti-tumor activity [8]: at least 10 fold
